Assay results: PMC12196321, “Discovery of Novel Inhibitors of Aspergillus fumigatus DHODH via Virtual Screening, MD Simulation, and In Vitro Activity Assay” (Molecules, 2025)

Target: T1, Aspergillus fumigatus dihydroorotate dehydrogenase (AfDHODH) (Aspergillus fumigatus, UniProt Q4X169)
T1 construct: gene AFUA_2G11010; residues 89–531 with an N-terminal His-tag
T1 sequence (Q4X169 89-531): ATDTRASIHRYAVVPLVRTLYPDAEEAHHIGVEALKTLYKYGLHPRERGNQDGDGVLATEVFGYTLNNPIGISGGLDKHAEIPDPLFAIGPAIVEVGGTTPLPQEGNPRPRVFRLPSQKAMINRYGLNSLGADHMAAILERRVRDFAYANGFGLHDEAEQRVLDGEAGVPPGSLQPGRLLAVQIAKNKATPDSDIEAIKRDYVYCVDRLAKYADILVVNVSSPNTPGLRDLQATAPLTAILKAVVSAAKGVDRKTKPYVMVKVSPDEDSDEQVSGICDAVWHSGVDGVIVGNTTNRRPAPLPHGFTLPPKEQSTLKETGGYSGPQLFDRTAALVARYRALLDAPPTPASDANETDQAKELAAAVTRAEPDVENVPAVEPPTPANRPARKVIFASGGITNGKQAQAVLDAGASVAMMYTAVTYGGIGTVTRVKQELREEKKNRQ
Assay: DCIP colorimetric enzyme assay (absorbance at […] nm)
Format: biochemical

Row | SMILES | IC50 [µM]
1 | COC(=O)c1c(NC(=S)NNC(=O)c2ccc(Cl)s2)sc(C(=O)N(C)C)c1C [ZINC67300323] | 57.3
2 | COC(=O)c1c(NC(=S)NNC(=O)c2ccc(Cl)s2)sc(C(=O)N(C)C)c1C [CHEMBL1509241] | 16.9
